Drawing on patent US20100075965A1, “PI3 KINASE INHIBITORS AND METHODS OF THEIR USE” (Novartis AG, priority 2006, published 2010), this text covers EC50 and IC50 for 22 molecules.

The test system of assay [1] is pSer473-Akt in A2780 cells. The experiment in a line: pSer473 Akt assay to monitor PI3K pathway in A2780 cells (MSD). The settings on record: Homo sapiens, A2780 cells. It is filed as cell-based. The method, boiled down:
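A2780 cells (15,000/well, adhered overnight) treated 1 h at 37 °C with compound, then lysed; pSer473-Akt and total Akt measured by MSD electrochemiluminescence. The pSer473/total Akt ratio gave percent inhibition versus DMSO, from which EC50 was derived.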

The subject of a further assay is A2780 cells. The experiment in a line: Viability assay in A2780 (Cell Titer Glo). Conditions: Homo sapiens, A2780 cells, read-out: A2780 Cell prolif. EC50. It is filed as cell-based, human. The method, boiled down:
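A2780 cells (1,000/well, DMEM + 10% FBS) were exposed to 3-fold serial dilutions of compound for 72 hrs at 37° C, 5% CO2. Viable cells were read by Cell Titer Glo luminescence, in duplicate, and EC50 values were derived from the curves.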

Another assay deals with PI3 K Alpha (Homo sapiens, UniProt P42336). The assay is described as follows: PI3 kinase phosphorylation assays (homogenous solution phase, one step solid phase, ATP depletion/KinaseGlo). It is filed as biochemical.
PI3 K Alpha, sequence (P42336 whole entry): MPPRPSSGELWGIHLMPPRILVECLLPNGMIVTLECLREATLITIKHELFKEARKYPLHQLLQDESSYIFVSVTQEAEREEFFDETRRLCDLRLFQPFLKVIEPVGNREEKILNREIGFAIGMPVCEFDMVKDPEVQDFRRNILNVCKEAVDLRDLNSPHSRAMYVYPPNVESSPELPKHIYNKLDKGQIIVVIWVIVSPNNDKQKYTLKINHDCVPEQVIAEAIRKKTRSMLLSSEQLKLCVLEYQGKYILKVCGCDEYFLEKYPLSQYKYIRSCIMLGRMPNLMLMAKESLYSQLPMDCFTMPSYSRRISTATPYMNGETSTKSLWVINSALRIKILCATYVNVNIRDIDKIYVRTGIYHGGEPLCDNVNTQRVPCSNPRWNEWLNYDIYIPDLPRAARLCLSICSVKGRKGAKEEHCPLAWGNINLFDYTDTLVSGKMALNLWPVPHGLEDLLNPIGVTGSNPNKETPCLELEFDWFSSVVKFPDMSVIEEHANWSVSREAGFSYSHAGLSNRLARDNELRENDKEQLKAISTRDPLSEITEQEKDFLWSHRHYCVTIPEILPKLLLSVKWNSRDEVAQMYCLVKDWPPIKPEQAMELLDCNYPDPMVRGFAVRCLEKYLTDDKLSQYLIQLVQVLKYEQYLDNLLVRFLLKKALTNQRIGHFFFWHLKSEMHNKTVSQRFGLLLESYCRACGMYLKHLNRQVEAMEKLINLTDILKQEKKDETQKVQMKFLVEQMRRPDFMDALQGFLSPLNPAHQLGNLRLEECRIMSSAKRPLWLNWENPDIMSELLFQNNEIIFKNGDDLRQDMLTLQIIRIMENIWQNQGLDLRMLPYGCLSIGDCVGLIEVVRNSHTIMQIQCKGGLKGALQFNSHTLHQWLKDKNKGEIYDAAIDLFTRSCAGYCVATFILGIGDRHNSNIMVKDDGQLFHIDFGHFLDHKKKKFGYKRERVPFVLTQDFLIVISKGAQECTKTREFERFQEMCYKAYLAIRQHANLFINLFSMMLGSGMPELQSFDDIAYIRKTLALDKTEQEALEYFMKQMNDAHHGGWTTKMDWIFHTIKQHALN
PI3 K Alpha, sequence (P27986 whole entry partner): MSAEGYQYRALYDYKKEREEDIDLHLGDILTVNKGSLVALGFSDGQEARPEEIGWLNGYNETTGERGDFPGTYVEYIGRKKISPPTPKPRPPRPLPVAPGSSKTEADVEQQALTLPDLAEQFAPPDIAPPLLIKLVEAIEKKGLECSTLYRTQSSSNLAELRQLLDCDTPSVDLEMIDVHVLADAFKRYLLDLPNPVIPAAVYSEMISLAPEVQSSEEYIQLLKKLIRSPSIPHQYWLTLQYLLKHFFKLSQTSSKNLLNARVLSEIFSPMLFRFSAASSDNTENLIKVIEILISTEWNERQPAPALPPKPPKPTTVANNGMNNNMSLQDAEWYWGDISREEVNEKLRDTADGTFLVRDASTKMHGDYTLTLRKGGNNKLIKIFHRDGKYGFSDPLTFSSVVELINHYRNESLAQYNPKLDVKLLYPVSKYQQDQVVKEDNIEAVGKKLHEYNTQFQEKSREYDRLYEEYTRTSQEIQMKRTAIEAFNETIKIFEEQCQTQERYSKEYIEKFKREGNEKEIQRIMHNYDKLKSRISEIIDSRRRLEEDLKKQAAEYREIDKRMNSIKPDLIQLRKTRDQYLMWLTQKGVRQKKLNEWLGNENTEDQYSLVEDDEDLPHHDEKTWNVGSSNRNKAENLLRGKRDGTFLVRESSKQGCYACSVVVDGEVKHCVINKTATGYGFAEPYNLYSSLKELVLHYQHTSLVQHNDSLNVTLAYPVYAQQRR
Setting [2] is: 1 h, one hour incubation, read-out: A2780 pAKT473 EC50.
Setting [3] is: ATP depletion assay, read-out: PI3 K Alpha IC50.

pEC50, pIC50: −log10 of the molar value. Like-named read-outs stand apart in the source and are kept apart here.

With `CC(=O)Nc1cn2cc(-c3cnc(N)c(-c4ccc(OC(F)(F)F)cc4)c3)ccc2n1` [Example 97, N-(6-(6-amino-5-(4-(trifluoromethoxy)phenyl)pyridin-3-yl)imidazo[1,2-a]pyridin-2-yl)acetamide], the pEC50 (usually the EC50 on a negative log10 scale, so that one unit is a factor of ten) was more than 5.00 in assay [1] (read-out: A2780 pAKT 473 EC50) and more than 6.00 in the assay on A2780 cells. For the same molecule, the pIC50 (as a rule, −log10 of the IC50, conventionally taken in molar units) at PI3 K Alpha (read-out: PI3K Alpha IC50) was more than 6.00.
Take `CC(=O)Nc1nc2ccc(-c3cnc(N)c(C(=O)N4CCOCC4)c3)cc2s1` [Example 2-26, N-{6-[6-Amino-5-(morpholine-4-carbonyl)-pyridin-3-yl]-benzothiazol-2-yl}-acetamide]: the pEC50 in assay [1] (setting [2]) is more than 6.00; in the assay with A2780 cells (72 hrs) it was more than 5.00. Also, the pIC50 on PI3 K Alpha (setting [3]) is more than 6.00.
As to `CCC(=O)Nc1cn2nc(-c3cnc(N)c(C(F)(F)F)c3)ccc2n1` [Example 96, N-(6-(6-amino-5-(trifluoromethyl)pyridin-3-yl)imidazo[1,2-b]pyridazin-2-yl)propionamide], the pEC50 (in assay [1] (read-out: A2780 pAKT 473 EC50); in the assay on A2780 cells) was more than 6.00 throughout. Further, the pIC50 at PI3 K Alpha (read-out: PI3K Alpha IC50) was more than 6.00.
As to `COc1ccc(CC(=O)Nc2cn3cc(-c4cnc(N)c(C(F)(F)F)c4)ccc3n2)cc1` [Example 99, N-(6-(6-amino-5-(trifluoromethyl)pyridin-3-yl)imidazo[1,2-a]pyridin-2-yl)-2-(4-methoxyphenyl) acetamide], the pEC50 (in assay [1] (read-out: A2780 pAKT 473 EC50); in the assay on A2780 cells) was more than 6.00 throughout. Besides, at PI3 K Alpha (read-out: PI3K Alpha IC50), the pIC50 was more than 6.00.
In the case of `CC(=O)Nc1cn2cc(-c3cnc(N)c(OC4CN(C(=O)c5ccccc5)C4)n3)ccc2n1` [Example 128, N-(6-(5-amino-6-(1-benzoylazetidin-3-yloxy)pyrazin-2-yl)imidazo[1,2-a]pyridin-2-yl)acetamide], the figures for the negative-log EC50 (pEC50) (in assay [1] (read-out: A2780 pAKT 473 EC50); with A2780 cells) were more than 6.00 and more than 5.00, respectively. For the same molecule, on PI3 K Alpha (read-out: PI3K Alpha IC50), the pIC50 was more than 6.00.
With `CCN(CC)C(=O)c1cc(-c2ccc3nc(NC(C)=O)cn3c2)cnc1N` [Example 218, 5-(2-acetamido-imidazo[1,2-a]pyridin-6-yl)-2-amino-N,N-diethyl-nicotinamide], the pEC50 in assay [1] (read-out: A2780 pAKT 473 EC50) is more than 6.00; in the assay on A2780 cells, more than 5.00. The pIC50 on PI3 K Alpha (read-out: PI3K Alpha IC50) is more than 6.00.
As to `COCCCOc1nc(-c2ccc3nc(NC(C)=O)cn3c2)cnc1N` [Example 73], the pEC50 (in assay [1] (read-out: A2780 pAKT 473 EC50); in the assay on A2780 cells) was more than 6.00 in each case. Further, the pIC50 at PI3 K Alpha (read-out: PI3K Alpha IC50) is more than 6.00.
As for `CC(=O)Nc1cn2cc(-c3cnc(N)c(N4CCN(C)CC4)n3)ccc2n1` [Example 131, N-(6-(5-amino-6-(4-methylpiperazin-1-yl)pyrazin-2-yl)imidazo[1,2-a]pyridin-2-yl)acetamide], the figures for the pEC50 (in assay [1] (read-out: A2780 pAKT 473 EC50); with A2780 cells) were more than 6.00 and more than 5.00, respectively. Further, the pIC50 at PI3 K Alpha (read-out: PI3K Alpha IC50) was more than 6.00.
`COc1nc(-c2ccc3nc(NC(C)=O)cn3n2)cnc1N` [Example 130, N-(6-(5-amino-6-methoxypyrazin-2-yl)imidazo[1,2-b]pyridazin-2-yl)acetamide]: the pEC50 in assay [1] (read-out: A2780 pAKT 473 EC50) was more than 6.00; in the assay with A2780 cells it was more than 5.00. Also, the pIC50 on PI3 K Alpha (read-out: PI3K Alpha IC50) is more than 6.00.
On to `CC(=O)Nc1cn2cc(-c3cnc(N)c(C=O)c3)ccc2n1` [Example 195, N-(6-(6-amino-5-formylpyridin-3-yl)imidazo[1,2-a]pyridin-2-yl)acetamide], for which the pEC50 is more than 6.00 in assay [1] (read-out: A2780 pAKT 473 EC50) and more than 5.00 in the assay on A2780 cells. In addition, the pIC50 at PI3 K Alpha (read-out: PI3K Alpha IC50) was more than 6.00.
With `NCC(=O)Nc1cn2cc(-c3cnc(N)c(C(F)(F)F)c3)ccc2n1` [Example 215, 2-amino-N-(6-(6-amino-5-(trifluoromethyl)pyridin-3-yl)imidazo[1,2-a]pyridin-2-yl)acetamide], the pEC50 (in assay [1] (read-out: A2780 pAKT 473 EC50); in the assay with A2780 cells) was more than 5.00 in each case. Further, at PI3 K Alpha (read-out: PI3K Alpha IC50), the pIC50 is more than 6.00.
In the case of `CC(=O)Nc1cn2cc(-c3cnc(N)c(OC4CN(C(=O)OC(C)(C)C)C4)n3)ccc2n1` [Example 67, tert-butyl 3-(6-(2-acetamido-imidazo[1,2-a]pyridin-6-yl)-3-aminopyrazin-2-yloxy)axetidine-1-carboxylate], the pEC50 (in assay [1] (read-out: A2780 pAKT 473 EC50); in the assay on A2780 cells) was more than 6.00 each time. Further, the pIC50 at PI3 K Alpha (read-out: PI3K Alpha IC50) was more than 6.00.
For the molecule `COC(=O)CCCC(=O)Nc1cn2nc(-c3cnc(N)c(C(F)(F)F)c3)ccc2n1` [Example 132, methyl 5-(6-(6-amino-5-(trifluoromethyl)pyridin-3-yl)imidazo[1,2-b]pyridazin-2-ylamino)-5-oxopentanoate], the negative-log EC50 (pEC50) in assay [1] (read-out: A2780 pAKT 473 EC50) was more than 6.00; with A2780 cells, more than 5.00. Moreover, the pIC50 at PI3 K Alpha (read-out: PI3K Alpha IC50) was more than 6.00.
As for `Nc1ncc(-c2ccc3nc(NC(=O)CCC4CCCCN4)cn3n2)cc1C(F)(F)F` (stereo not drawn) [Example 59, N-(6-(6-amino-5-(trifluoromethyl)pyridin-3-yl)imidazo[1,2-b]pyridazin-2-yl)-3-(piperidin-2-yl)propanamide], the negative logarithm of the EC50 (pEC50) (in assay [1] (read-out: A2780 pAKT 473 EC50); in the assay on A2780 cells) was more than 6.00 each time. The pIC50 at PI3 K Alpha (read-out: PI3K Alpha IC50) is more than 6.00.
In the case of `CCCNc1ccc(-c2ccc3nc(NC(C)=O)sc3c2)cn1` [Example 2-7, N-[6-(6-Propylamino-pyridin-3-yl)-benzothiazol-2-yl]-acetamide], the figures for the negative-log EC50 (pEC50) (in assay [1] (setting [2]); with A2780 cells (72 hrs)) were more than 6.00 and more than 4.60, respectively. For the same molecule, the pIC50 on PI3 K Alpha (setting [3]) is more than 6.00.
As to `COc1cc(-c2ccc3nc(NC(C)=O)cn3c2)c(C)nc1N` [Example 33, N-(6-(6-amino-5-methoxy-2-methylpyridin-3-yl)imidazo[1,2-a]pyridin-2-yl)acetamide], the pEC50 in assay [1] (read-out: A2780 pAKT 473 EC50) was more than 4.60; with A2780 cells it was more than 5.00. For the same molecule, the pIC50 on PI3 K Alpha (read-out: PI3K Alpha IC50) is less than 4.60.
On to `CC(=O)Nc1cn2cc(-c3cnc(N)c(/C=N/N(C)C)c3)ccc2n1` [Example 204, (E)-N-(6-(6-amino-5-((2,2-dimethylhy-drazono)methyl)pyridin-3-yl)imidazo[1,2-a]pyridin-2-yl)acetamide], for which the pEC50 in assay [1] (read-out: A2780 pAKT 473 EC50) was more than 6.00; with A2780 cells it was more than 5.00. The pIC50 at PI3 K Alpha (read-out: PI3K Alpha IC50) was more than 6.00.
Take `Nc1ncc(-c2ccc3nc(NC(=O)CO[C@H]4CCNC4)cn3n2)cc1C(F)(F)F` [Example 82, (S)-N-(6-(6-amino-5-(trifluoromethyl)pyridin-3-yl)imidazo[1,2-b]pyridazin-2-yl)-2-(pyrrolidin-3-yloxy)acetamide]: the pEC50 (in assay [1] (read-out: A2780 pAKT 473 EC50); in the assay on A2780 cells) was more than 6.00 throughout. For the same molecule, the pIC50 at PI3 K Alpha (read-out: PI3K Alpha IC50) is more than 6.00.
Consider `CC(=O)Nc1cn2cc(-c3cnc(N)c(C)c3)ccc2n1` [Example 208, N-(6-(6-amino-5-methylpyridin-3-yl)imidazo[1,2-a]pyridin-2-yl)acetamide], for which the pEC50 in assay [1] (read-out: A2780 pAKT 473 EC50) is more than 6.00; in the assay on A2780 cells it was more than 5.00. For the same molecule, the pIC50 at PI3 K Alpha (read-out: PI3K Alpha IC50) is more than 6.00.
For `CC(=O)Nc1nc2ccc(-c3cnc(N)c(C(F)(F)F)c3)cn2c1Cl` [Example 7, N-[6-(6-Amino-5-trifluoromethyl-pyridin-3-yl)-3-chloro-imidazo[1,2-a]pyridin-2-yl]-acetamide], the pEC50 (in assay [1] (read-out: A2780 pAKT 473 EC50); in the assay with A2780 cells) was more than 5.00 in each case. Besides, on PI3 K Alpha (read-out: PI3K Alpha IC50), the pIC50 is more than 6.00.
Regarding `CC(=O)Nc1cn2cc(-c3cnc(N)c(OC4CCC4)n3)ccc2n1` [Example 64, N-(6-(5-amino-6-cyclobutoxy-pyrazin-2-yl)imidazo[1,2-a]pyridin-2-yl)acetamide], the pEC50 (in assay [1] (read-out: A2780 pAKT 473 EC50); in the assay on A2780 cells) was more than 6.00 in each case. In addition, the pIC50 on PI3 K Alpha (read-out: PI3K Alpha IC50) is more than 6.00.
Take `Nc1ncc(-c2ccc3nc(NC(=O)CO[C@@H]4CCNC4)cn3n2)cc1C(F)(F)F` [Example 69, (R)-N-(6-(6-amino-5-(trifluoromethyl)pyridin-3-yl)imidazo[1,2-b]pyridazin-2-yl)-2-(pyrrolidin-3-yloxy)acetamide]: the pEC50 (in assay [1] (read-out: A2780 pAKT 473 EC50); in the assay on A2780 cells) was more than 6.00 throughout. On PI3 K Alpha (read-out: PI3K Alpha IC50), the pIC50 is more than 6.00.
